Laboratory results as given in patent publication US20060063784A1, “Method of using substituted pyrazolo [1,5-a] pyrimidines” (priority 2004, published 2006).
Like-named read-outs stand apart in the source and are kept apart here.

How the values were obtained:
[1] = system: 80S14 (p21-deficient) cells; assay: Cytotoxicity assay using isogenic cell lines: IC50 in 80S14 (p21-deficient) cells, SRB; type: cell-based, human
How it was run: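 80S14 (p21-deficient) cells seeded at 12,000 cells/well overnight, then exposed 5 days at 37 °C to serial dilutions (5 pM–50 μM or 170 pg/ml–10 μg/ml). TCA-fixed, sulforhodamine B-stained, absorbance at 560 nm; IC50 taken from cytotoxicity curves versus untreated controls.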

LoVo Colon cell line = assay: Cytotoxicity assay using LoVo colon cell line, SRB; type: cell-based; settings: read-out: Inhibition of LoVo
Method: Cytotoxicity Assay Using LoVo Colon Cell Line: • 1. LoVo Colon cell lines were cultured in RPMI 1640 medium (Gibco/Invitrogen Life Sciences) supplemented with 10% fetal bovine serum (FBS, Gibco) and 50 μg/ml entamicin (Gibco). Cells were maintained at 37° C. under 7% CO2. • 2. Cells were seeded in 96-well microtiter plates (Corning/Costar) in a volume of 0.15 ml of growth medium (4000 cells/well). Plates were incubated at 37° C. overnight (18-24 hours). • 3. Serial dilutions of the test agent were added to each well. Dilutions were prepared in growth medium. One of two dose ranges was used: 5 pM to 20 μM or 170 pg/ml to 10 μg/ml. Cells were incubated with the test compounds for 4 days at 37° C. • 4. Surviving cells were processed using the SRB asay, as described above.
5. The drug concentration that inhibits cell proliferation by 50% relative to untreated controls (IC50) was determined from cytotoxicity curves using the LSW Toolbox graphing application.

[2] = Homo sapiens, 120 h, 80S14 p21-deficient cells, 5 days incubation, SRB, read-out: IC50 for 80SI4
[3] = Homo sapiens, 96 h, LoVo colon cells, 4 days incubation, SRB
[4] = Homo sapiens, 120 h, 80S14 (p21-deficient) cells, 5 days, SRB, class symbols, read-out: IC50 for 80S14
[5] = Homo sapiens, 96 h, Cellular activity in LoVo cell, 4 days incubation, SRB

Row | Compound | IC50 [1, 4] [µM] | IC50 (LoVo Colon cell line; [5]) [nM] | also measured
1 | Cc1cc(-c2cccc(NC(=O)OCCCl)c2)n2ncc(C(=O)c3cccs3)c2n1 [Example 198, 2-chloroethyl 3-[5-methyl-3-(thien-2-ylcarbonyl)pyrazolo[1,5-a]pyrimidin-7-yl]phenylcarbamate] |  |  | IC50 [1, 2]: < 1 µM; IC50 (LoVo Colon cell line; [3]): < 100 nM
2 | O=C(c1cccs1)c1cnn2c(-c3cccc(N(C(=O)c4c(Cl)cccc4Cl)C(=O)c4c(Cl)cccc4Cl)c3)ccnc12 [Example 391, 2,6-Dichloro-N-(2,6-dichlorobenzoyl)-N-{3-[3-(thien-2-ylcarbonyl)pyrazolo[1,5-a]pyrimidin-7-yl]phenyl}benzamide] | 10 to 50 | 1000 to 20000 | 
3 | C/C=C/CNc1cccc(-c2ccnc3c(C(=O)c4cccs4)cnn23)c1 [Example 370, (7-{3-[(2E)-But-2-enylamino]phenyl}pyrazolo[1,5-a]pyrimidin-3-yl)(thien-2-yl)methanone] | < 1 | < 100 | 
4 | O=C(Nc1cccc(-c2ccnc3c(C(=O)c4cccs4)cnn23)c1)c1cn[nH]c1 [Example 441, N-{3-[3-(Thien-2-ylcarbonyl)pyrazolo[1,5-a]pyrimidin-7-yl]phenyl}-1H-pyrazole-4-carboxamide] | 10 to 50 | 1000 to 20000 | 
5 | Cc1cc(C)cc(-c2cnn3c(-c4cccc(-c5nnn(CC6CCC6)n5)c4)ccnc23)c1 [Example 492, 7-{3-[2-(Cyclobutylmethyl)-2H-tetraazol-5-yl]phenyl}-3-(3,5-dimethylphenyl)pyrazolo[1,5-a]pyrimidine] | 1 to 10 | 100 to 1000 | 
6 | O=C(c1cccs1)c1cnn2c(-c3cccc(NC(=S)Nc4ccccc4)c3)ccnc12 [Example 334, N-Phenyl-N′-{3-[3-(thien-2-ylcarbonyl)pyrazolo[1,5-a]pyrimidin-7-yl]phenyl}thiourea] | < 1 | 100 to 1000 | 
7 | O=C(CC1CCCC1)Nc1cccc(-c2ccnc3c(C(=O)c4ccco4)cnn23)c1 [Example 303, 2-Cyclopentyl-N-{3-[3-(2-furoyl)pyrazolo[1,5-a]pyrimidin-7-yl]phenyl}acetamide] | < 1 | < 100 | 
8 | O=C(Nc1cccc(-c2ccnc3c(C(=O)c4cccs4)cnn23)c1)OCCCCCl [Example 26, 4-chlorobutyl 3-[3-(thien-2-ylcarbonyl)pyrazolo[1,5-a]pyrimidin-7-yl]phenylcarbamate] |  |  | IC50 [1, 2]: < 1 µM; IC50 (LoVo Colon cell line; [3]): < 100 nM
9 | O=C(CCc1ccncc1)Nc1cccc(-c2ccnc3c(C(=O)c4cccs4)cnn23)c1 [Example 440, 3-Pyridin-4-yl-N-{3-[3-(thien-2-ylcarbonyl)pyrazolo[1,5-a]pyrimidin-7-yl]phenyl}propanamide] | 1 to 10 | 100 to 1000 | 
10 | O=C(c1cccs1)c1cnn2c(-c3cccc(NCc4ccc(Cl)cc4)c3)ccnc12 [Example 366, (7-{3-[(4-Chlorobenzyl)amino]phenyl}pyrazolo[1,5-a]pyrimidin-3-yl)(thien-2-yl)methanone] | 10 to 50 | 1000 to 20000 | 
11 | O=C(Nc1cc(-c2ccnc3c(C(=O)c4cccs4)cnn23)ccc1F)c1c(F)cccc1F [Example 374, 2,6-Difluoro-N-{2-fluoro-5-[3-(thien-2-ylcarbonyl)pyrazolo[1,5-a]pyrimidin-7-yl]phenyl}benzamide] | < 1 | < 100 | 
12 | CC#CC(=O)Nc1cccc(-c2ccnc3c(C(=O)c4cccs4)cnn23)c1 [Example 274, N-{3-[3-(2-Thienylcarbonyl)pyrazolo[1,5-a]pyrimidin-7-yl]phenyl}-2-butynamide] | < 1 | < 100 | 
13 | O=C(c1cccs1)c1cnn2c(-c3cccc(-c4ccc(CO)cc4)c3)ccnc12 [Example 452, {7-[4′-(Hydroxymethyl)-1,1′-biphenyl-3-yl]pyrazolo[1,5-a]pyrimidin-3-yl}(thien-2-yl)methanone] | < 1 | < 100 | 
14 | CC(C)OC(=O)Nc1ccc(Cl)c(-c2ccnc3c(C(=O)c4cccs4)cnn23)c1 [Example 335, Isopropyl 4-chloro-3-[3-(thien-2-ylcarbonyl)pyrazolo[1,5-a]pyrimidin-7-yl]phenylcarbamate] |  |  | IC50 ([1]; Homo sapiens, 80S14, 120 h, read-out: IC50 for 80S14 (uM)): < 1 µM; IC50 (LoVo Colon cell line; Homo sapiens, LoVo, 96 h): 100 to 1000 nM
15 | CC(C)(C)COC(=O)Nc1cccc(-c2ccnc3c(C(=O)c4cccs4)cnn23)c1 [Example 17, neopentyl 3-[3-(thien-2-ylcarbonyl)pyrazolo[1,5-a]pyrimidin-7-yl]phenylcarbamate] |  |  | IC50 [1, 2]: < 1 µM; IC50 (LoVo Colon cell line; [3]): < 100 nM
16 | O=C(Nc1cccc(-c2ccnc3c(C(=O)c4cccs4)cnn23)c1)c1ccco1 [Example 285, N-{3-[3-(2-Thienylcarbonyl)pyrazolo[1,5-a]pyrimidin-7-yl]phenyl}-2-furamide] | < 1 | < 100 | 
17 | Cc1cc(C)cc(-c2cnn3c(-c4cccc(C#N)c4)ccnc23)c1 [Example 490, 3-[3-(3,5-Dimethylphenyl)pyrazolo[1,5-a]pyrimidin-7-yl]benzonitrile] | 10 to 50 | 1000 to 20000 | 
18 | COc1ccc(-c2cnn3c(-c4cccc(NC(=O)CC(C)C)c4)ccnc23)cc1C=O [Example 484, N-{3-[3-(3-Formyl-4-methoxyphenyl)pyrazolo[1,5-a]pyrimidin-7-yl]phenyl}-3-methylbutanamide] | 1 to 10 | 1000 to 20000 | 
19 | CC(C)CC(=O)Nc1ccc(-c2ccnc3c(C(=O)c4cccs4)cnn23)s1 [Example 343, 3-Methyl-N-{5-[3-(thien-2-ylcarbonyl)pyrazolo[1,5-a]pyrimidin-7-yl]thien-2-yl}butanamide] | 1 to 10 | 1000 to 20000 | 
20 | O=C(c1cccs1)c1cnn2c(-c3cccc(NCC4CCCCC4)c3)ccnc12 [Example 379, (7-{3-[(Cyclohexylmethyl)amino]phenyl)pyrazolo[1,5-a]pyrimidin-3-yl)(thien-2-yl)methanone] | < 1 | < 100 | 
21 | O=C(Nc1cccc(-c2ccnc3c(C(=O)c4cccs4)cnn23)c1)OC1CCOCC1 [Example 176, tetrahydro-2H-pyran-4-yl 3-[3-(thien-2-ylcarbonyl)pyrazolo[1,5-a]pyrimidin-7-yl]phenylcarbamate] |  |  | IC50 [1, 2]: < 1 µM; IC50 (LoVo Colon cell line; [3]): < 100 nM
22 | N-{4-Chloro-3-[3-(thien-2-ylcarbonyl)pyrazolo[1,5-a]yrimidin-7-yl]phenyl}-N′-isopropylthiourea [Example 340] |  |  | IC50 ([1]; 80S14 (p21-deficient) cells, 5 days, SRB, class symbols, read-out: IC50 for 80S14): 1 to 10 µM; IC50 (LoVo Colon cell line; Cellular activity in LoVo cell, 4 days incubation, SRB): 100 to 1000 nM
23 | O=Cc1ccc(-c2cccc(-c3ccnc4c(C(=O)c5cccs5)cnn34)c2)cc1 [Example 458, 3′-[3-(Thien-2-ylcarbonyl)pyrazolo[1,5-a]pyrimidin-7-yl]-1,1′-biphenyl-4-carbaldehyde] | 1 to 10 | 100 to 1000 | 
24 | CC/C=C(\C)CNc1cccc(-c2ccnc3c(C(=O)c4cccs4)cnn23)c1 [Example 426, [7-(3-{[(2E)-2-Methylpent-2-enyl]amino}phenyl)pyrazolo[1,5-a]pyrimidin-3-yl](thien-2-yl)methanone] | 1 to 10 | 100 to 1000 | 
25 | O=C(c1cccs1)c1cnn2c(-c3cccc(-c4nnn(CCN5CCOCC5)n4)c3)ccnc12 [Example 507, (7-{3-[2-(2-Morpholin-4-ylethyl)-2H-tetraazol-5-yl]phenyl}pyrazolo[1,5-a]pyrimidin-3-yl)(thien-2-yl)methanone] | 1 to 10 | 100 to 1000 | 
26 | O=C(CC1CCCCCC1)Nc1cccc(-c2ccnc3c(C(=O)c4cccs4)cnn23)c1 [Example 75, 2-cycloheptyl-N-{3-[3-(thien-2-ylcarbonyl)pyrazolo[1,5-a]pyrimidin-7-yl]phenyl}acetamide] |  |  | IC50 [1, 2]: < 1 µM; IC50 (LoVo Colon cell line; [3]): < 100 nM
27 | CCOc1cccc(-c2cnn3c(-c4cccc(NC(=O)CC(C)C)c4)ccnc23)c1 [Example 479, N-{3-[3-(3-Ethoxyphenyl)pyrazolo[1,5-a]pyrimidin-7-yl]phenyl}-3-methylbutanamide] | 10 to 50 | 1000 to 20000 | 
28 | CC(C)OC(=O)Nc1cc(-c2ccnc3c(C(=O)c4cccs4)cnn23)ccc1N(C)C [Example 348, Isopropyl 2-(dimethylamino)-5-[3-(thien-2-ylcarbonyl)pyrazolo[1,5-a]pyrimidin-7-yl]phenylcarbamate] | 1 to 10 | 100 to 1000 | 
29 | CC(C)(C)CC(=O)Nc1cccc(-c2ccnc3c(C(=O)c4cccs4)cnn23)c1 [Example 55, 3,3-dimethyl-N-{3-[3-(thien-2-ylcarbonyl)pyrazolo[1,5-a]pyrimidin-7-yl]phenyl}butanamide] |  |  | IC50 ([1]; Homo sapiens, 80S14, 120 h, read-out: IC50 for 80SI4 (uM)): < 1 µM; IC50 (LoVo Colon cell line; Homo sapiens, LoVo, 96 h): < 100 nM
30 | O=C(c1cccs1)c1cnn2c(-c3cccc(NC(=O)C4CCCC4)c3)ccnc12 [Example 283, N-{3-[3-(2-Thienylcarbonyl)pyrazolo[1,5-a]pyrimidin-7-yl]phenyl}cyclopentanecarboxamide] | < 1 | < 100 | 
